Reference: ChEMBL document CHEMBL3991601, “The target landscape of clinical kinase drugs” (Science, 2017)
Activity calls are given as the source filed them.

Each molecule was assayed against T1, General transcription and DNA repair factor IIH helicase subunit XPD (Homo sapiens, UniProt P18074). Settings: read-out: Kd apparent; k-562, colo 205, sk-n-be(2) and mv-4-11.
T1 sequence (P18074 whole entry): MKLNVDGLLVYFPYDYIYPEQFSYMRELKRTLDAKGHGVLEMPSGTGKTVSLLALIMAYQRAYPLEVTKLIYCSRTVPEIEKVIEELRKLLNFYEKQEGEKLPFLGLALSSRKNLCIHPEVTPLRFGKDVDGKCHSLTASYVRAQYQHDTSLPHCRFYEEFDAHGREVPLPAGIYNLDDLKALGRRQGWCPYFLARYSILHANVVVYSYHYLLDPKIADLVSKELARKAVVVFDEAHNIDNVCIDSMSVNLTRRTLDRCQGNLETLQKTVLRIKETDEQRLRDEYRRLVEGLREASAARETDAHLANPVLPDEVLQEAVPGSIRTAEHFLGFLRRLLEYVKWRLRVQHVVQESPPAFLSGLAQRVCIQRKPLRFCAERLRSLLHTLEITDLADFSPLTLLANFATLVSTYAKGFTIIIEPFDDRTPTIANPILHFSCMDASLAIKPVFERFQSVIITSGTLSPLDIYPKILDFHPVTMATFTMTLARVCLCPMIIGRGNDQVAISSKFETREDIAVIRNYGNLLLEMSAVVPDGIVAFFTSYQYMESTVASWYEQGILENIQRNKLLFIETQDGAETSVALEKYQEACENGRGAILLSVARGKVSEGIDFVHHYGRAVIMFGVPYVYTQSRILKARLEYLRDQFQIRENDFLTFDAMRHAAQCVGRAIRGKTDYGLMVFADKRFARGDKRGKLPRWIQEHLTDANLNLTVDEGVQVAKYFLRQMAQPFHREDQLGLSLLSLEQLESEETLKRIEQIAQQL
Also: in the data inactive means no Kd found up to 30 µM.

Structure (SMILES) | Kd
CNS(=O)(=O)Nc1nccc(Cc2c(C)c3ccc(Oc4ncccn4)cc3oc2=O)c1F [AVUTOMETINIB] | > 30 µM (inactive)
COc1cc(CCc2cc(NC(=O)c3ccc(N4C[C@@H](C)N[C@@H](C)C4)cc3)n[nH]2)cc(OC)c1 [AZD-4547] | > 30 µM (inactive)
Cc1cc([C@@H](C)Nc2ccccc2C(=O)O)c2nc(N3CCOCC3)cc(=O)n2c1 [AZD-6482] | > 30 µM (inactive)
COc1ccc(-c2ccc3c(N4CCOC[C@@H]4C)nc(N4CCOC[C@@H]4C)nc3n2)cc1CO [AZD-8055] | > 30 µM (inactive)

These molecules were tested against Myosin light chain kinase, smooth muscle (Homo sapiens, UniProt Q15746). Settings: not given.
Myosin light chain kinase, smooth muscle, sequence (Q15746 whole entry): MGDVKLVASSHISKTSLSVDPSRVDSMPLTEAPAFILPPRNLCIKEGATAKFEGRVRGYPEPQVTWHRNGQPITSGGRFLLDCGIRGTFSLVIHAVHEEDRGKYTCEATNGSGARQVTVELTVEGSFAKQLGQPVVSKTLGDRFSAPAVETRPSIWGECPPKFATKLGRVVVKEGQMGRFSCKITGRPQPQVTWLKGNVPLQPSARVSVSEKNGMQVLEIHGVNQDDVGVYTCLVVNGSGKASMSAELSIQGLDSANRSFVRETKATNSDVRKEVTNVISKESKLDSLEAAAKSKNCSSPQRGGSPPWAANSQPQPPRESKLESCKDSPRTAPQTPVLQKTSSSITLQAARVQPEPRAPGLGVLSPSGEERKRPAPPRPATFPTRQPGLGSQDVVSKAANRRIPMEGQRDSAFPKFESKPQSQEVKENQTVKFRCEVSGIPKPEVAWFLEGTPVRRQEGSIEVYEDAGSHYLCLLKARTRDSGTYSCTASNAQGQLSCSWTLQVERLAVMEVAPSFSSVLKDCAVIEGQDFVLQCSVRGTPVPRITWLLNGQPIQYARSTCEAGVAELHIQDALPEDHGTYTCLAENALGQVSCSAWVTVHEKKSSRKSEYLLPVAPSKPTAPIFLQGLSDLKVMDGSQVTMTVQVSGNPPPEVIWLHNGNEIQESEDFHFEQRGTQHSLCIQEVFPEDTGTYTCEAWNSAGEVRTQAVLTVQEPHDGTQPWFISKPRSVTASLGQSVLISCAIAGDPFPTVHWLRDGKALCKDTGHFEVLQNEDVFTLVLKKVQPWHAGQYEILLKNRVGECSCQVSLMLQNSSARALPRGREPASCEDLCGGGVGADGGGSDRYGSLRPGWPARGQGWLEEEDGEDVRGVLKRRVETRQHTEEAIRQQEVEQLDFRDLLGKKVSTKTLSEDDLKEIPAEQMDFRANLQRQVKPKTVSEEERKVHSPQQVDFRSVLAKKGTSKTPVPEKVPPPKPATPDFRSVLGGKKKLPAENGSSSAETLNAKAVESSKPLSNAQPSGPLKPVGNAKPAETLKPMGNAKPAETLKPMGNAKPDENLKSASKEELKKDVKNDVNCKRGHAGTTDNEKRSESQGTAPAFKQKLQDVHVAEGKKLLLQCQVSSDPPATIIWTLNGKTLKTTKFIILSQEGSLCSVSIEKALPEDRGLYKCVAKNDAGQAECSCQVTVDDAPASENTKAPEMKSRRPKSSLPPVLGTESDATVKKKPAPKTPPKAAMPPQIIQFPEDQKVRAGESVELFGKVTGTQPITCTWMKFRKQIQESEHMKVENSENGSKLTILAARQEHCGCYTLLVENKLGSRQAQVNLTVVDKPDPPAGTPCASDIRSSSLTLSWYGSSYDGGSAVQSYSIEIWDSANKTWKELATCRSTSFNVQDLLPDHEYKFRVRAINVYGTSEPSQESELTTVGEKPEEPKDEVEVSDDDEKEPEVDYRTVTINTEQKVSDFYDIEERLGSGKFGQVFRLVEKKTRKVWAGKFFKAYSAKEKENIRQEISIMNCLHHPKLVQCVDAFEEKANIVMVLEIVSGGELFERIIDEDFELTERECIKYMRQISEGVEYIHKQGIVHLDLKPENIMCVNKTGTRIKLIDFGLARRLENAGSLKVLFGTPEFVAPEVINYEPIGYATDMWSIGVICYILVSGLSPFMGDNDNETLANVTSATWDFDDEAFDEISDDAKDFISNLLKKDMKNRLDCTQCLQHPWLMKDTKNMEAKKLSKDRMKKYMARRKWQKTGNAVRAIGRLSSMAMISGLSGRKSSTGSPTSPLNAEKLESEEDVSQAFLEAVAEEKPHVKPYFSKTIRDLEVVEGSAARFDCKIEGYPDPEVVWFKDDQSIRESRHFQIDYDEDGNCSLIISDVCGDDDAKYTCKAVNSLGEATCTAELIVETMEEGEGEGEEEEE

Structure (SMILES) | Kd
CNS(=O)(=O)Nc1nccc(Cc2c(C)c3ccc(Oc4ncccn4)cc3oc2=O)c1F [AVUTOMETINIB] | > 30 µM (inactive)
COc1cc(CCc2cc(NC(=O)c3ccc(N4C[C@@H](C)N[C@@H](C)C4)cc3)n[nH]2)cc(OC)c1 [AZD-4547] | > 30 µM (inactive)
Cc1cc([C@@H](C)Nc2ccccc2C(=O)O)c2nc(N3CCOCC3)cc(=O)n2c1 [AZD-6482] | > 30 µM (inactive)
COc1ccc(-c2ccc3c(N4CCOC[C@@H]4C)nc(N4CCOC[C@@H]4C)nc3n2)cc1CO [AZD-8055] | > 30 µM (inactive)

The molecules below were run against Bone morphogenetic protein receptor type-1B (Homo sapiens, UniProt O00238). Settings: not given.
Bone morphogenetic protein receptor type-1B, sequence (O00238 whole entry): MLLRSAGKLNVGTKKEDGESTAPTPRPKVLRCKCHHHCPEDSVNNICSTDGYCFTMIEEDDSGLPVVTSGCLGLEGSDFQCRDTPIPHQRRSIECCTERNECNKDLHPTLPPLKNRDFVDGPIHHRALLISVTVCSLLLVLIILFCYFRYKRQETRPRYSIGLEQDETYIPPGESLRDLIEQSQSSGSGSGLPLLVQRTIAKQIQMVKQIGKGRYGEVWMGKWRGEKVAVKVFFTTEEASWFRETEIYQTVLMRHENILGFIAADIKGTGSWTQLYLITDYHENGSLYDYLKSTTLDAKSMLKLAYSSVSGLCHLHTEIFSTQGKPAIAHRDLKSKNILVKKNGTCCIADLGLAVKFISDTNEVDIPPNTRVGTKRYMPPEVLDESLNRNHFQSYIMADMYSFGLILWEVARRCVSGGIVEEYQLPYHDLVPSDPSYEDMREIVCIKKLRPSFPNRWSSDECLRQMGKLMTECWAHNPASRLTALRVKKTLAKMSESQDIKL

Structure (SMILES) | Kd
CNS(=O)(=O)Nc1nccc(Cc2c(C)c3ccc(Oc4ncccn4)cc3oc2=O)c1F [AVUTOMETINIB] | > 30 µM (inactive)
COc1cc(CCc2cc(NC(=O)c3ccc(N4C[C@@H](C)N[C@@H](C)C4)cc3)n[nH]2)cc(OC)c1 [AZD-4547] | > 30 µM (inactive)
Cc1cc([C@@H](C)Nc2ccccc2C(=O)O)c2nc(N3CCOCC3)cc(=O)n2c1 [AZD-6482] | > 30 µM (inactive)
COc1ccc(-c2ccc3c(N4CCOC[C@@H]4C)nc(N4CCOC[C@@H]4C)nc3n2)cc1CO [AZD-8055] | > 30 µM (inactive)

These molecules were tested against Mitogen-activated protein kinase 1 (Homo sapiens, UniProt P28482). Settings: not given.
Mitogen-activated protein kinase 1, sequence (P28482 whole entry): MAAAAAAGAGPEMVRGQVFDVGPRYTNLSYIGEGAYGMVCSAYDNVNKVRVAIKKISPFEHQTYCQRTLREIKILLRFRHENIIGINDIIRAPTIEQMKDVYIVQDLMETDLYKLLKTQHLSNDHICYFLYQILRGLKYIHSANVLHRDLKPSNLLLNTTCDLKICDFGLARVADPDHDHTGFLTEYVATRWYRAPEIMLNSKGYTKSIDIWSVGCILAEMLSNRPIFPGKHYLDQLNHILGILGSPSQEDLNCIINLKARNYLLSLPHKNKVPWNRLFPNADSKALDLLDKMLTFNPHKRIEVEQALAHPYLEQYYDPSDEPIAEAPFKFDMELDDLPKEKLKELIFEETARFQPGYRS

Structure (SMILES) | Kd
CNS(=O)(=O)Nc1nccc(Cc2c(C)c3ccc(Oc4ncccn4)cc3oc2=O)c1F [AVUTOMETINIB] | > 30 µM (inactive)
COc1cc(CCc2cc(NC(=O)c3ccc(N4C[C@@H](C)N[C@@H](C)C4)cc3)n[nH]2)cc(OC)c1 [AZD-4547] | > 30 µM (inactive)
Cc1cc([C@@H](C)Nc2ccccc2C(=O)O)c2nc(N3CCOCC3)cc(=O)n2c1 [AZD-6482] | > 30 µM (inactive)
COc1ccc(-c2ccc3c(N4CCOC[C@@H]4C)nc(N4CCOC[C@@H]4C)nc3n2)cc1CO [AZD-8055] | > 30 µM (inactive)

These molecules were tested against T2, Acyl-CoA dehydrogenase family member 11 (Homo sapiens, UniProt Q709F0). Settings: not given.
T2 sequence (Q709F0 whole entry): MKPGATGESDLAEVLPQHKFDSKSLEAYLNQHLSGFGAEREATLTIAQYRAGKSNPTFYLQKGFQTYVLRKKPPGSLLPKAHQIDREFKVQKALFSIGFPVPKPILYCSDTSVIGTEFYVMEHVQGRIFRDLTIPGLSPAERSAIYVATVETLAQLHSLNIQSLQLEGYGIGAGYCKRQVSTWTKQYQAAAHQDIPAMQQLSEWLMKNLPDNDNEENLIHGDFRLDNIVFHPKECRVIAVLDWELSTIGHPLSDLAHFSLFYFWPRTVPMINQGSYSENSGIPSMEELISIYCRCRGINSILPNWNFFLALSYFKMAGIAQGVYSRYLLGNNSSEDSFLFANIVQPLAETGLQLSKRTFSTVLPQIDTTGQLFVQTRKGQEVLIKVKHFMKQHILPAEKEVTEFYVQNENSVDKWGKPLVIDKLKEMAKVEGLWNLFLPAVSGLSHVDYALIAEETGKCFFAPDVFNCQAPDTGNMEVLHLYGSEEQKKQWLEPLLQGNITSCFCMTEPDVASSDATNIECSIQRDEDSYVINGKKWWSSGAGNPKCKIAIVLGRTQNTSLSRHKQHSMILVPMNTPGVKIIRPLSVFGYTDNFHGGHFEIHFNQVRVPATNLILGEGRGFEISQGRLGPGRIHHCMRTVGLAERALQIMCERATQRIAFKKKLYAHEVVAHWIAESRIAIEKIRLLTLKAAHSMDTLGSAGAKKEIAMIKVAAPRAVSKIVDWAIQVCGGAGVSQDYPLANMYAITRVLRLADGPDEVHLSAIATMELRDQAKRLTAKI

Structure (SMILES) | Kd
CNS(=O)(=O)Nc1nccc(Cc2c(C)c3ccc(Oc4ncccn4)cc3oc2=O)c1F [AVUTOMETINIB] | > 30 µM (inactive)
COc1cc(CCc2cc(NC(=O)c3ccc(N4C[C@@H](C)N[C@@H](C)C4)cc3)n[nH]2)cc(OC)c1 [AZD-4547] | > 30 µM (inactive)
Cc1cc([C@@H](C)Nc2ccccc2C(=O)O)c2nc(N3CCOCC3)cc(=O)n2c1 [AZD-6482] | > 30 µM (inactive)
COc1ccc(-c2ccc3c(N4CCOC[C@@H]4C)nc(N4CCOC[C@@H]4C)nc3n2)cc1CO [AZD-8055] | > 30 µM (inactive)

The molecules below were run against T3, ATP-dependent RNA helicase DDX1 (Homo sapiens, UniProt Q92499). Settings: not given.
T3 sequence (Q92499 whole entry): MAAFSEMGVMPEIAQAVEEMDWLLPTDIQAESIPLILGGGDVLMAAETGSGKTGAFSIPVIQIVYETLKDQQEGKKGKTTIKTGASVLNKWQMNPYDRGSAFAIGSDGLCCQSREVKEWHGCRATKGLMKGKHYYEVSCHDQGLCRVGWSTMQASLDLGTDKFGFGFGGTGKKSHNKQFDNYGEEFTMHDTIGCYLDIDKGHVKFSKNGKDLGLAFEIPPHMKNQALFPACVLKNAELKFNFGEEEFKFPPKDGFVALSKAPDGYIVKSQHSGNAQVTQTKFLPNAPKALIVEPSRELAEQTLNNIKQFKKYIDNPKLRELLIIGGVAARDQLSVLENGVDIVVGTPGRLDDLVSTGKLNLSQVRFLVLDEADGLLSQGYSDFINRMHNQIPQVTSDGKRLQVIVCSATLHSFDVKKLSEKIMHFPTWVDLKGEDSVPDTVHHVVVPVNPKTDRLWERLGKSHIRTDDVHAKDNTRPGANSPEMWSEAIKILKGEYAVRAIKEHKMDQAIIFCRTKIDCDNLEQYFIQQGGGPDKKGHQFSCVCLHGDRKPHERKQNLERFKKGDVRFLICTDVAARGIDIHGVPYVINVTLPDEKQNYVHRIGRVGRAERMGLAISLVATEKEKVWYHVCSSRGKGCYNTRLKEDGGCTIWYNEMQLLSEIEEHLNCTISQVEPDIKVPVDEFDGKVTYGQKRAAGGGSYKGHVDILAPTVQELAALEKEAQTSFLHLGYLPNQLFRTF

Structure (SMILES) | Kd
CNS(=O)(=O)Nc1nccc(Cc2c(C)c3ccc(Oc4ncccn4)cc3oc2=O)c1F [AVUTOMETINIB] | > 30 µM (inactive)
COc1cc(CCc2cc(NC(=O)c3ccc(N4C[C@@H](C)N[C@@H](C)C4)cc3)n[nH]2)cc(OC)c1 [AZD-4547] | > 30 µM (inactive)
Cc1cc([C@@H](C)Nc2ccccc2C(=O)O)c2nc(N3CCOCC3)cc(=O)n2c1 [AZD-6482] | > 30 µM (inactive)
COc1ccc(-c2ccc3c(N4CCOC[C@@H]4C)nc(N4CCOC[C@@H]4C)nc3n2)cc1CO [AZD-8055] | > 30 µM (inactive)

These molecules were tested against Mitogen-activated protein kinase kinase kinase 20 (Homo sapiens, UniProt Q9NYL2). Settings: not given.
Mitogen-activated protein kinase kinase kinase 20, sequence (Q9NYL2 whole entry): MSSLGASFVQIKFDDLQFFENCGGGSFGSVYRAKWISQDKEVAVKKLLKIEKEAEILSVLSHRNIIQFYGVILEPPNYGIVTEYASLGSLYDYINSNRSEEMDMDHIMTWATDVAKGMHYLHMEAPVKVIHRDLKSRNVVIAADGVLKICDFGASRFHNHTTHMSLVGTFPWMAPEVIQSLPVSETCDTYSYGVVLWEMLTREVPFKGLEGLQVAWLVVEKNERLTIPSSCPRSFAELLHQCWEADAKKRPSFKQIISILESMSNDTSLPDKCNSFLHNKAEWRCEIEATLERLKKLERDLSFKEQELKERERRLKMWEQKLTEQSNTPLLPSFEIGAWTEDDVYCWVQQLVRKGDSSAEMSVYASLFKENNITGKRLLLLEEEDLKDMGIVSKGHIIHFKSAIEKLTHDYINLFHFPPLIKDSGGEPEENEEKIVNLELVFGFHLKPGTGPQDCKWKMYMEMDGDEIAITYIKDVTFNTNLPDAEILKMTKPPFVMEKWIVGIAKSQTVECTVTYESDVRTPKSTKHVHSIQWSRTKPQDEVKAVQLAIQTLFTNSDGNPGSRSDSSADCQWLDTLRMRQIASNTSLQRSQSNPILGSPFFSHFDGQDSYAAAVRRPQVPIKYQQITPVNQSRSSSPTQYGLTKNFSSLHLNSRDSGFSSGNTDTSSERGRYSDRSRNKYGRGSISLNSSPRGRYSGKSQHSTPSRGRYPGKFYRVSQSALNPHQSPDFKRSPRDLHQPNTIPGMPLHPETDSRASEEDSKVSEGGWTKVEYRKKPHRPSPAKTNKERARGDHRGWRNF

Structure (SMILES) | Kd
CNS(=O)(=O)Nc1nccc(Cc2c(C)c3ccc(Oc4ncccn4)cc3oc2=O)c1F [AVUTOMETINIB] | > 30 µM (inactive)
COc1cc(CCc2cc(NC(=O)c3ccc(N4C[C@@H](C)N[C@@H](C)C4)cc3)n[nH]2)cc(OC)c1 [AZD-4547] | 9.54 µM (active)
Cc1cc([C@@H](C)Nc2ccccc2C(=O)O)c2nc(N3CCOCC3)cc(=O)n2c1 [AZD-6482] | > 30 µM (inactive)
COc1ccc(-c2ccc3c(N4CCOC[C@@H]4C)nc(N4CCOC[C@@H]4C)nc3n2)cc1CO [AZD-8055] | > 30 µM (inactive)

The molecules below were run against U5 small nuclear ribonucleoprotein 200 kDa helicase (Homo sapiens, UniProt O75643). Settings: not given.

Structure (SMILES) | Kd
CNS(=O)(=O)Nc1nccc(Cc2c(C)c3ccc(Oc4ncccn4)cc3oc2=O)c1F [AVUTOMETINIB] | > 30 µM (inactive)
COc1cc(CCc2cc(NC(=O)c3ccc(N4C[C@@H](C)N[C@@H](C)C4)cc3)n[nH]2)cc(OC)c1 [AZD-4547] | > 30 µM (inactive)
Cc1cc([C@@H](C)Nc2ccccc2C(=O)O)c2nc(N3CCOCC3)cc(=O)n2c1 [AZD-6482] | > 30 µM (inactive)
COc1ccc(-c2ccc3c(N4CCOC[C@@H]4C)nc(N4CCOC[C@@H]4C)nc3n2)cc1CO [AZD-8055] | > 30 µM (inactive)

These molecules were tested against RAC-gamma serine/threonine-protein kinase (Homo sapiens, UniProt Q9Y243). Settings: not given.
RAC-gamma serine/threonine-protein kinase, sequence (Q9Y243 whole entry): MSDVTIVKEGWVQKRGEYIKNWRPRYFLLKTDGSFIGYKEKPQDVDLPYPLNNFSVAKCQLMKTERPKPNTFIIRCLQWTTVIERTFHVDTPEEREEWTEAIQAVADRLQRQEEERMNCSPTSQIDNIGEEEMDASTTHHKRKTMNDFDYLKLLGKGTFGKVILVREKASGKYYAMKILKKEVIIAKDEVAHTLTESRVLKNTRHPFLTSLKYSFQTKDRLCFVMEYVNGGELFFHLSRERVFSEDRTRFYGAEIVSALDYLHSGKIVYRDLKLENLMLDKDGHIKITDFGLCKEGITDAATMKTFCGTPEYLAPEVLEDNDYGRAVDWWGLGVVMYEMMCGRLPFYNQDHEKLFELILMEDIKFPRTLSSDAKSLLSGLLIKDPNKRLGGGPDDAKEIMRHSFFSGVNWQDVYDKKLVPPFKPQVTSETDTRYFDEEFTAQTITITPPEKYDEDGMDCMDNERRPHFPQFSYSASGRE

Structure (SMILES) | Kd
CNS(=O)(=O)Nc1nccc(Cc2c(C)c3ccc(Oc4ncccn4)cc3oc2=O)c1F [AVUTOMETINIB] | > 30 µM (inactive)
COc1cc(CCc2cc(NC(=O)c3ccc(N4C[C@@H](C)N[C@@H](C)C4)cc3)n[nH]2)cc(OC)c1 [AZD-4547] | > 30 µM (inactive)
Cc1cc([C@@H](C)Nc2ccccc2C(=O)O)c2nc(N3CCOCC3)cc(=O)n2c1 [AZD-6482] | > 30 µM (inactive)
COc1ccc(-c2ccc3c(N4CCOC[C@@H]4C)nc(N4CCOC[C@@H]4C)nc3n2)cc1CO [AZD-8055] | > 30 µM (inactive)
